Marks after values point to notes of the source that are not given here. [I] = hypoxanthine (inosine)
Columns and labels:
[1] = Monomer and tetramer formation of IRPs, size-exclusion HPLC; type: physicochemical; conditions: 100 mg/mL in PBS and 0.5M KCl, room temperature, five weeks
Experimental: Solutions were prepared of the by mixing 100 mg/mL of the IRP sequences in PBS and 0.5M KCl and storing at room temperature for three to five weeks. The solutions were subsequently analyzed by size-exclusion HPLC.

[2] = High dosages of IRPs in rats (weight, deaths, histology); type: in vivo, Sprague Dawley rats; conditions: for Heart: Cell Vacuolation, number of animals / Heart: Hemorrhage, number of animals / Heart: Mononuclear Cell Infiltration, number of animals / Heart: Necrosis, number of animals / Heart: No significant changes, number of animals / Liver: Liver changes, number of animals / Liver: Mixed cell infiltration, number of animals / Liver: Necrosis, number of animals / Liver: No significant changes, number of animals / Liver: Vacuolation, number of animals / Right Kidney: Hydronephrosis, number of animals / Right Kidney: Mineralization, number of animals / Right Kidney: Necrosis, number of animals / Right Kidney: No significant changes, number of animals / Right Kidney: Tubular basophilia, number of animals / Right Kidney: Tubular changes, number of animals: 6 animals
Experimental: To test the activity of IRPs at high dosages in rats, IRPs (SEQ ID NO:42 and SEQ ID NO:109) or a control (PBS) were subcutaneously administered to 8-9 weeks old, […], 3, 6, and 9 (n=6 per group). Rats were weighed prior to administration and on days 1, 3, 4, 6, 7, and 9. Organs were harvested at the end of the study, and organ weights and tissues levels of the oligonucleotides were determined. In addition, histolocial evaluation of the liver, kidney, and heart was performed.
Rats were weighed prior to administration and on days 1, 3, 6, 7, and 9. Organs were harvested at the end of the study, and organ weights and tissues levels of the oligonucleotides were determined. In addition, histological evaluation of the liver, kidney, and heart was performed.

[3] = High dosages of IRPs in mice (weight, histology); type: in vivo, BALB/c mice; conditions: for Liver: Liver changes, number of animals / Liver: Mixed cell infiltration, number of animals / Liver: No significan changes, number of animals / Right Kidney: No significant changes, number of animals / Right Kidney: Tubular basophilia, number of animals / Right Kidney: Tubular changes, number of animals: 6 animals; for Heart: No significant changes, number of animals: tissue missing in two animals
Experimental: To test the activity of IRPs at high dosages in mice, IRPs or a control (saline) were subcutaneously administered to BALB/c mice at a dosage of 4 mg/kg, 20 mg/kg, 50 mg/kg, or 100 mg/kg on days 1, 4, 7, and 10 (n=5 per group). Mice were weighed prior to administration and on days 2, 4, 7, 9, and 11. Serum cytokines were assayed at two hours post the first and third injections and 24 hours post the fourth injection. Organs were harvested at the end of the study, and organ weights and tissues levels of the oligonucleotides were determined. In addition, histological evaluation of the liver, kidney, and heart was performed.
Mice were weighed prior to administration and on days 1, 3, 4, 6, 7, and 9. Organs were harvested at the end of the study, and organ weights and tissues levels of the oligonucleotides were determined. In addition, histological evaluation of the liver, kidney, and heart was performed.

human B-cells = assay: Human B-cells cultured in the presence of IRPs, IL-6
Experimental: For the human B-cell assay, B-cells were purified from total blood cells obtained from healthy donors using magnetic beads (CD19 positive). Cells were resuspended in fresh medium (RPMI 1640 with 10% fetal calf serum, 50 units/mL penicillin, 50 μg/mL streptomycin, and 2 mM glutamine). At 48 hours, supernatants were collected and cytokine levels, IL-6, were measured using immunoassay.
To further investigate the effect of IRPs on B-cell stimulatory activity, a wide variety of IRP sequences were assayed for IL-6, along with positive and negative controls. The experiment was performed as described in Example 1 using doses of IRP of either 4.0 μM or 2.0 μM. The positive control was an immunostimulatory sequence (ISS) with SEQ ID NO:157. […] The results are presented as the average normalized IL-6 response over several experiments.

[4] = rat, 10 mg/kg, 0 = no change to 4 = severe
[5] = rat, 90 mg/kg, 0 = no change to 4 = severe
[6] = 50 mg/kg, 0 = no change to 4 = severe
[7] = 100 mg/kg, 0 = no change to 4 = severe

Question: For “5′-TGC TCC TGG AGI GGT TGT-3′ (DNA TGCTCCTGGAGNGGTTGT; DNA, [I] at 12, backbone and methylation of C not given here) [SEQ ID NO:73]”, which “fraction in monomer form” value [1] is on record?
Answer: Its value is 100%.

Question: What about the toxicity profile ([2]; rat histology) of the same substance?
Answer: Its toxicity profile is “favorable toxicity profiles”.

Question: And the “Heart: Cell Vacuolation, number of animals” value ([2]; rat, 10 mg/kg)?
Answer: The value was 0.

Question: What about the “Heart: Hemorrhage, number of animals” value ([2]; rat, 10 mg/kg) of the same substance?
Answer: Its value is 0.

Question: And the “Heart: Mononuclear Cell Infiltration, number of animals” value ([2]; rat, 10 mg/kg)?
Answer: The value was 0.

Question: What about the “Heart: Necrosis, number of animals” value ([2]; rat, 10 mg/kg) of the same substance?
Answer: Its value is 0.

Question: What about the “Heart: No significant changes, number of animals” value (shortened to “Heart: No significant changes”) ([2]; rat, 10 mg/kg) of the same substance?
Answer: Its value is 6.

Question: And the “Liver: Liver changes, number of animals” value ([2]; rat, 10 mg/kg)?
Answer: The value was 0.

Question: What about the “Liver: Mixed cell infiltration, number of animals” value ([2]; rat, 10 mg/kg) of the same substance?
Answer: The value was 6.

Question: What about the “Liver: Necrosis, number of animals” value ([2]; rat, 10 mg/kg) of the same substance?
Answer: Its value is 0.

Question: What about the “Liver: No significant changes, number of animals” value ([2]; rat, 10 mg/kg) of the same substance?
Answer: The value was 0.

Question: And the “Liver: Vacuolation, number of animals” value ([2]; rat, 10 mg/kg)?
Answer: The value was 0.

Question: And the “Right Kidney: Hydronephrosis, number of animals” value ([2]; rat, 10 mg/kg)?
Answer: The value was 1.

Question: What about the “Right Kidney: Mineralization, number of animals” value ([2]; rat, 10 mg/kg) of the same substance?
Answer: Its value is 1.

Question: What about the “Right Kidney: Necrosis, number of animals” value ([2]; rat, 10 mg/kg) of the same substance?
Answer: Its value is 0.

Question: What about the “Right Kidney: No significant changes, number of animals” value (“Right Kidney: No significant changes” for short) ([2]; rat, 10 mg/kg) of the same substance?
Answer: The value was 0.

Question: And the “Right Kidney: Tubular basophilia, number of animals” value (shortened to “Right Kidney: Tubular basophilia”) ([2]; rat, 10 mg/kg)?
Answer: Its value is 0.

Question: What about the “Right Kidney: Tubular changes, number of animals” value ([2]; rat, 10 mg/kg) of the same substance?
Answer: Its value is 6.

Question: What about the “Liver: Mixed cell infiltration, mean severity score” value [2, 4] of the same substance?
Answer: The value was 1.8.

Question: And the “Right Kidney: Hydronephrosis, mean severity score” value [2, 4]?
Answer: Its value is 2.0.

Question: And the “Right Kidney: Mineralization, mean severity score” value [2, 4]?
Answer: Its value is 1.0.

Question: And the “Right Kidney: Tubular changes, mean severity score” value [2, 4]?
Answer: The value was 1.3.

Question: And the “Heart: Cell Vacuolation, number of animals” value ([2]; rat, 90 mg/kg)?
Answer: Its value is 0.

Question: What about the “Heart: Hemorrhage, number of animals” value ([2]; rat, 90 mg/kg) of the same substance?
Answer: The value was 0.

Question: And the “Heart: Mononuclear Cell Infiltration, number of animals” value ([2]; rat, 90 mg/kg)?
Answer: The value was 0.

Question: And the “Heart: Necrosis, number of animals” value ([2]; rat, 90 mg/kg)?
Answer: Its value is 0.

Question: What about the “Heart: No significant changes” value ([2]; rat, 90 mg/kg) of the same substance?
Answer: The value was 6.

Question: What about the “Liver: Liver changes, number of animals” value ([2]; rat, 90 mg/kg) of the same substance?
Answer: The value was 6.

Question: What about the “Liver: Mixed cell infiltration, number of animals” value ([2]; rat, 90 mg/kg) of the same substance?
Answer: Its value is 2.

Question: And the “Liver: Necrosis, number of animals” value ([2]; rat, 90 mg/kg)?
Answer: The value was 0.

Question: And the “Liver: No significant changes, number of animals” value ([2]; rat, 90 mg/kg)?
Answer: The value was 0.

Question: What about the “Liver: Vacuolation, number of animals” value ([2]; rat, 90 mg/kg) of the same substance?
Answer: Its value is 0.

Question: And the “Right Kidney: Hydronephrosis, number of animals” value ([2]; rat, 90 mg/kg)?
Answer: The value was 0.

Question: What about the “Right Kidney: Mineralization, number of animals” value ([2]; rat, 90 mg/kg) of the same substance?
Answer: Its value is 2.

Question: And the “Right Kidney: Necrosis, number of animals” value ([2]; rat, 90 mg/kg)?
Answer: The value was 0.

Question: What about the “Right Kidney: No significant changes” value ([2]; rat, 90 mg/kg) of the same substance?
Answer: The value was 0.

Question: What about the “Right Kidney: Tubular basophilia” value ([2]; rat, 90 mg/kg) of the same substance?
Answer: Its value is 0.

Question: What about the “Right Kidney: Tubular changes, number of animals” value ([2]; rat, 90 mg/kg) of the same substance?
Answer: The value was 6.

Question: What about the “Liver: Liver changes, mean severity score” value [2, 5] of the same substance?
Answer: Its value is 1.9.

Question: And the “Liver: Mixed cell infiltration, mean severity score” value [2, 5]?
Answer: The value was 2.0.

Question: And the “Right Kidney: Mineralization, mean severity score” value [2, 5]?
Answer: The value was 1.5.

Question: And the “Right Kidney: Tubular changes, mean severity score” value [2, 5]?
Answer: The value was 2.0.

Question: What about the “Heart: Chronic inflammation, number of animals” value ([3]; 50 mg/kg) of the same substance?
Answer: The value was 0.

Question: And the “Heart: Mineralization, number of animals” value ([3]; 50 mg/kg)?
Answer: Its value is 2.

Question: What about the “Heart: Mineralization, mean severity score” value [3, 6] of the same substance?
Answer: The value was 3.0.

Question: And the “Liver: Liver changes, mean severity score” value [3, 6]?
Answer: The value was 1.0.

Question: What about the “Liver: Mixed cell infiltration, mean severity score” value [3, 6] of the same substance?
Answer: The value was 1.0.

Question: What about the “Liver: Liver changes, number of animals” value ([3]; 50 mg/kg) of the same substance?
Answer: The value was 1.

Question: What about the “Liver: Mixed cell infiltration, number of animals” value ([3]; 50 mg/kg) of the same substance?
Answer: The value was 2.

Question: What about the “Liver: No significan changes, number of animals” value ([3]; 50 mg/kg) of the same substance?
Answer: The value was 3.

Question: What about the “Right Kidney: No significant changes” value ([3]; 50 mg/kg) of the same substance?
Answer: The value was 6.

Question: And the “Right Kidney: Tubular basophilia” value ([3]; 50 mg/kg)?
Answer: Its value is 0.

Question: What about the “Right Kidney: Tubular changes, number of animals” value ([3]; 50 mg/kg) of the same substance?
Answer: Its value is 0.

Question: What about the “Heart: No significant changes” value ([3]; 50 mg/kg) of the same substance?
Answer: The value was 2**.

Question: What about the “Heart: Chronic inflammation, number of animals” value ([3]; 100 mg/kg) of the same substance?
Answer: Its value is 1.

Question: And the “Heart: Mineralization, number of animals” value ([3]; 100 mg/kg)?
Answer: Its value is 1.

Question: What about the “Heart: Chronic inflammation, mean severity score” value [3, 7] of the same substance?
Answer: Its value is 2.0.

Question: And the “Heart: Mineralization, mean severity score” value [3, 7]?
Answer: The value was 3.0.

Question: What about the “Liver: Liver changes, mean severity score” value [3, 7] of the same substance?
Answer: Its value is 1.0.

Question: And the “Liver: Mixed cell infiltration, mean severity score” value [3, 7]?
Answer: Its value is 1.0.

Question: What about the “Right Kidney: Tubular changes, mean severity score” value [3, 7] of the same substance?
Answer: Its value is 1.0.

Question: And the “Liver: Liver changes, number of animals” value ([3]; 100 mg/kg)?
Answer: The value was 5.

Question: And the “Liver: Mixed cell infiltration, number of animals” value ([3]; 100 mg/kg)?
Answer: The value was 1.

Question: And the “Liver: No significan changes, number of animals” value ([3]; 100 mg/kg)?
Answer: The value was 1.

Question: And the “Right Kidney: No significant changes” value ([3]; 100 mg/kg)?
Answer: Its value is 0.

Question: What about the “Right Kidney: Tubular basophilia” value ([3]; 100 mg/kg) of the same substance?
Answer: Its value is 0.

Question: And the “Right Kidney: Tubular changes, number of animals” value ([3]; 100 mg/kg)?
Answer: Its value is 6.

Question: And the “Heart: No significant changes” value ([3]; 100 mg/kg)?
Answer: Its value is 2**.

Question: What about the “Normalized IL-6 Response (Percentage of Positive Control)” value (human B-cells; Experiment # 1, Max Conc 4.0 uM) of the same substance?
Answer: Its value is 11%.

Question: What about the “Normalized IL-6 Response (Percentage of Positive Control)” value (human B-cells; Experiment # 2, Max Conc 4.0 uM) of the same substance?
Answer: Its value is 13%.

Question: And the “Normalized IL-6 Response (Percentage of Positive Control)” value (human B-cells; Experiment # 3, Max Conc 4.0 uM)?
Answer: Its value is 6%.

Question: And the “Normalized IL-6 Response (Percentage of Positive Control)” value (human B-cells; Experiment # 9, Max Conc 2.0 uM)?
Answer: The value was 11%.

Question: And the B-cell stimulatory activity (human B-cells; FIG. 1C, percent IL-6 from CpG-ISS)?
Answer: Its B-cell stimulatory activity is “low B-cell stimulatory activity”.
